Values of other authors, collected in patent US20240139186A1, “METHODS OF TREATING HIV” (Janssen Sciences Ireland Unlimited Company, priority 2019, published 2024).

Conditions: adult and pediatric participants receiving abacavir in clinical studies

- hypersensitivity reactions reported, proportion of participants: approximately 5%
SMILES: Nc1nc(NC2CC2)c2ncn([C@H]3C=C[C@@H](CO)C3)c2n1 [abacavir]
